The values below come from patent US20250161271A1, “PHARMACEUTICAL COMPOSITION FOR TREATING CANCER, COMPRISING ANTICANCER AGENT AND NOVEL COMPOUND HAVING INHIBITORY ACTIVITY WITH RESPECT TO PROSTAGLANDIN E2 RECEPTORS” (KANAPH THERAPEUTICS INC., priority 2022, published 2025).

Usually IC50 stands for the concentration needed to halve the response being measured.

One data set has as its target T1, hEP2 (Homo sapiens, UniProt P43116).
T1 construct: expressed in transfected cells; host or cells: HEK293
Kind of data set: hEP2 cAMP assay. The class given is cell-based. The following applies: HEK293 cells overexpressing hEP2; PGE2 400 pM as agonist; median of multiple experiments; read-out: IC50 (nM) EP2 cAMP. On the procedure: Experimental Example 1.1: hEP2 cAMP Assay
HEK293 cells overexpressing hEP2 were cultured in growth medium (GM:MEM (Gibco™, 11095080)/10% HI FBS (Gibco™, 10082147)/1% penicillin/streptomycin). Before the experiment, the growth medium was removed, and starvation medium (HBSS (Gibco™ 14025076)/10% GM) was added. Thereafter, the cells were incubated for 4 hours. The HEK293 cells harboring hEP2 were detached from the culture dish with a non-enzymatic cell dissociation buffer (Gibco™, 15040066). The cells were resuspended in assay buffer (AB:HBSS, 0.1% BSA stabilizer, 0.5 mM IBMX, 5 mM HEPES).
(§1) 1,000 cells in 5 μL of AB were seeded per well in a 384 well plate (Corning®, 3570), and stock solutions of test compounds were prepared at a concentration of 1 mM in DMSO and serially diluted in DMSO to the concentration required for the inhibition dose response curve (test concentration range of […]-0.001 nM). […]
5 μL of each donor (Eu-cAMP tracer) and acceptor (ULight-anti-cAMP) was added, and the plate was incubated in the dark for 1 hour at room temperature, and then a Varioskan LUX multimode microplate reader was used to obtain the results (excitation: 334 nm, emission: 615 and 665 nm). The resulting FRET fluorescence value (665 nm/615 nm*10000) was converted and then calculated as a percentage of cAMP relative to the DMSO control value. […]
Background: Changes in cAMP serve as a functional read-out for many G protein-coupled receptors.

A further data set has as its target T2, hEP4 (Homo sapiens, UniProt P35408).
T2 construct: expressed in transfected cells; host or cells: HEK293
Put plainly: hEP4 cAMP assay. The class given is cell-based. The following applies: HEK293 cells overexpressing hEP4; PGE2 20 nM as agonist; median of multiple experiments; read-out: IC50 (nM) EP4 cAMP. Here is the method:
Experimental Example 1.2: hEP4 cAMP Assay
HEK293 cells overexpressing hEP4 were cultured in growth medium (GM:MEM (Gibco™, 11095080)/10% HI FBS (Gibco™, 10082147)/1% penicillin/streptomycin). Before the experiment, the growth medium was removed, and starvation medium (HBSS (Gibco™ 14025076)/10% GM) was added. Thereafter, the cells were incubated for 4 hours. HEK293 cells harboring hEP4 were detached from the culture dish with a non-enzymatic cell dissociation buffer (Gibco™, 15040066). The cells were resuspended in assay buffer (AB:HBSS, 0.1% BSA stabilizer, 0.5 mM IBMX, 5 mM HEPES).
as §1
5 μL of each donor (Eu-cAMP tracer) and acceptor (ULight-anti-cAMP) was added, and the plate was incubated in the dark for 1 hour at room temperature, and then a Varioskan LUX multimode microplate reader was used to obtain the results (excitation: 334 nm, emission: 615 and 665 nm). The resulting FRET fluorescence value (665 nm/615 nm*10000) was converted and then calculated as a percentage of cAMP compared to the DMSO control value. […]

A further data set has as its system MC38 cells. Kind of data set: Anticancer efficacy in mouse-derived colorectal carcinoma MC38 tumor model (tumor size). The class given is in vivo. On the procedure: Experimental Example 2.2. Evaluation of Anticancer Efficacy of Combination Administration in Mouse-Derived Colorectal Carcinoma Tumor Model: MC38
(§2) MC38 cells were subcultured in a cell incubator (CO2 incubator) under 37° C., 5% CO2 conditions using DMEM medium containing 10% FBS (fetal bovine serum). For the tumor animal model, MC38 cells were resuspended at a concentration of 1×10^6 cells/100 μL, and 100 μL per each mouse was transplanted into the subcutaneous region of the right flank of 6 to 7 week-old C57B/6 mice (Shanghai Lingchang Biotechnology Co., Ltd, Shanghai) to prepare a MC38 tumor model.
The tumor size was calculated by measuring in the same manner as in Experimental Example 2.1.
When the tumor size reached an average of 70 to 100 mm^3, the mice were randomly divided into groups for the evaluation of drug efficacy (average tumor size=91 mm^3). The drug efficacy was evaluated by substituting the measured tumor size into Equation 2 of Experimental Example 2.1 to calculate and compare the tumor growth inhibitory ability between groups.
(§3) Drug administration was carried out for 18 days from the day after the test groups were grouped into a group treated with A02 (Example 1b), a group treated with an anti-PD-1 antibody, an immune checkpoint inhibitor, and a group treated with A02 and an anti-PD-1 antibody in combination. The anti-PD-1 antibody (BioXcell, Cat #BP0146) was diluted in PBS and intraperitoneally administered once every 3 days at a concentration of 200 μg/mouse. A02 was used as an excipient by adding Tween 80 to 0.5% methycellulose (40000 cp) aqueous solution until it reached 0.2%, and A02 was suspended as an excipient and orally administered daily at a concentration of 150 mg/kg.

A short description of data set [1]: Body weight of mice in MC38 tumor model. The class given is in vivo, mouse. Conditions: C57B/6 mice. Here is the method:
as §2, §3

The next data set deals with CT26 cells. Put plainly: Anticancer efficacy in mouse-derived colorectal carcinoma CT26 tumor model (tumor size). The class given is in vivo. Here is the method: Experimental Example 2.1. Evaluation of Anticancer Efficacy of Combination Administration in Mouse-Derived Colorectal Carcinoma Tumor Model: CT26
(§4) CT26 cells were subcultured and maintained in a cell incubator (CO2 incubator) under 37° C., […] conditions using RPMI-1640 medium containing 10% FBS (fetal bovine serum). For the tumor animal model, CT26 cells were resuspended at a concentration of […] cells/100 μL, and 100 μL per each mouse was transplanted into the subcutaneous region of the right flank of 6 to 7 week-old BALB/c mice (Shanghai Lingchang Biotechnology Co., Ltd, Shanghai) to prepare a CT26 tumor model.
The tumor size was calculated by measuring the short axis and the long axis using a vernier caliper and substituting them into Equation 1 below.
tumor size (volume, mm^3)=(short axis, mm)^2×(long axis, mm)×0.5 [Equation 1]
When the tumor size reached an average of 70 to 100 mm^3, the mice were randomly divided into groups for the evaluation of drug efficacy (average tumor size per group=79 mm^3). The drug efficacy was evaluated by substituting the measured tumor size into Equation 2 to calculate and compare the tumor growth inhibitory ability between groups.
tumor growth inhibitory ability=[{(control group tumor size at the time of measurement,C)−(control group tumor size at the start of administration,C0)}−{(test group tumor size at the time of measurement,T)−(test group tumor size at the start of administration,T0)}]/{(control group tumor size at the time of measurement,C)−(control group tumor size at the start of administration,C0)} [Equation 2]
Drug administration was carried out for 12 days from the day after the test groups were grouped into a group treated with A01 (Example 34b), a group treated with an anti-PD-1 antibody, an immune checkpoint inhibitor, and a group treated with A01 and an anti-PD-1 antibody in combination. The anti-PD-1 antibody (BioXcell, Cat #BP0146) was diluted in PBS and intraperitoneally administered once every 3 days at a concentration of 200 μg/mouse. […]

The nature of data set [2]: Body weight of mice in CT26 tumor model. The class given is in vivo, mouse. Conditions: BALB/c mice. Here is the method:
as §4
as §3, with “12” for “18”, “A01” for “A02”, “34b),” for “1b),”

T2 sequence (P35408 whole entry): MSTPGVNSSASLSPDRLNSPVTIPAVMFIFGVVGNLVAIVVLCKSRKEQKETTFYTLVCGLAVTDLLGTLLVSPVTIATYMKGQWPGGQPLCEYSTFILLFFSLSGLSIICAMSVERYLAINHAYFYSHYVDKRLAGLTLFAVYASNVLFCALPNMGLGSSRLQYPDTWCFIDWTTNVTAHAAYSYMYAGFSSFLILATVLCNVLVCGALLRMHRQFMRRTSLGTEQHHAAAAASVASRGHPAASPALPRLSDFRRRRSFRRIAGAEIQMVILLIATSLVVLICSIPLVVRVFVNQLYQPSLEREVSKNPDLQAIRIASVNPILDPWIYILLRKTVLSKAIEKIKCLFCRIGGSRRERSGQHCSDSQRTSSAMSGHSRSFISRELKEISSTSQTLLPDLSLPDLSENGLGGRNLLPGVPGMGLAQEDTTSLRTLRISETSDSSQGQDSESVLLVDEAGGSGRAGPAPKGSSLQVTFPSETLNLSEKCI
T1 sequence (P43116 whole entry): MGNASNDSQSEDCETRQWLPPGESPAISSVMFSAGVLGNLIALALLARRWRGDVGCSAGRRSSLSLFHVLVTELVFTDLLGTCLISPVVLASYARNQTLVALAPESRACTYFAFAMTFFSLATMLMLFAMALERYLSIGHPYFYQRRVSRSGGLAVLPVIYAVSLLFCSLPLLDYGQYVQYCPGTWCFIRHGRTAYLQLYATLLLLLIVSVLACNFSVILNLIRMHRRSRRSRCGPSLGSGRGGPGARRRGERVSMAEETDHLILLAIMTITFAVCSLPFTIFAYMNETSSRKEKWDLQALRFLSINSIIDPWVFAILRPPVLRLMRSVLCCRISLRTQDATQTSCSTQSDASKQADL

Take `O=C(N[C@]12C[C@](C(=O)O)(C1)C2)c1csc2ccn(Cc3ccc(-c4ccccc4)cc3)c12` [Example 87, 3-(4-([1,1′-biphenyl]-4-ylmethyl)-4H-thieno[3,2-b]pyrrole-3-carboxamido)bicyclo[1.1.1]pentane-1-carboxylic acid]: the IC50 on hEP2 and at hEP4 was more than 10000 nM in each case.
On to `Cc1sc(C)c(C(=O)NC2CC3(C2)CC(C(=O)O)C3)c1Cc1ccc(-c2ccccc2)cc1` (stereo not shown) [Example A02], for which, in the data set on MC38 cells (18 days administration, A02 150 mg/kg oral daily, anti-PD-1 antibody 200 μg/mouse i.p. once every 3 days, Equation 2), the “tumor growth inhibition rate compared to control group” value amounted to 32.7%. Moreover, the “tumor size at end point of the test” value in the data set with MC38 cells (C57B/6 mice, 18 days administration, A02 150 mg/kg oral daily, anti-PD-1 antibody 200 μg/mouse i.p. once every 3 days) came out at 1711.0±236.4 mm^3. Besides, in the data set with MC38 cells (C57B/6 mice, start of drug administration), the “tumor size at start point of the test” value is reported as 91.5±3.1 mm^3. Also, the “body weight at end point of the test” value in data set [1] (18 days administration, A02 150 mg/kg oral daily, anti-PD-1 antibody 200 μg/mouse i.p. once every 3 days) is 22.0 ± 0.4 g. For the same molecule, the “body weight at start point of the test” value in data set [1] (start of drug administration) came out at 19.1 ± 0.2 g.
For `COc1cc(F)cc(-c2ccc(Cc3c(C)sc(C)c3C(=O)NC3CC4(C3)CC(C(=O)O)C4)cc2)c1` (stereo not shown) [Example A01], the “tumor growth inhibition rate compared to control group” value in the data set on CT26 cells (12 days administration, A01 150 mg/kg oral daily, anti-PD-1 antibody 200 μg/mouse i.p. once every 3 days, Equation 2) is listed as 38.5%. In addition, the “tumor size at end point of the test” value in the data set with CT26 cells (BALB/c mice, 12 days administration, A01 150 mg/kg oral daily, anti-PD-1 antibody 200 μg/mouse i.p. once every 3 days) came out at 1092.6±237.5 mm^3. The “tumor size at start point of the test” value in the data set with CT26 cells (BALB/c mice, start of drug administration) stood at 79.4±2.3 mm^3. Besides, the “body weight at end point of the test” value in data set [2] (12 days administration, A01 150 mg/kg oral daily, anti-PD-1 antibody 200 μg/mouse i.p. once every 3 days) turned out to be 22.2 ± 0.6 g. The “body weight at start point of the test” value in data set [2] (start of drug administration) stood at 20.4 ± 0.4 g.
In the case of `COc1cc(-c2ccc(Cc3c(C)sc(C)c3C(=O)NC3CC4(C3)CC(C(=O)O)C4)cc2)cc(N2CCC2=O)c1` [Example 63, (2R, 4R, 6R)-6-(4-((3′-methoxy-5′-(2-oxoazetidin-1-yl)-[1,1′-biphenyl]-4-yl)methyl)-2,5-dimethylthiophene-3-carboxamido)spiro[3.3]heptane-2-carboxylic acid], the concentration for half-maximal inhibition (IC50) at hEP4 was not above 500 nM.
